Assay results as given in patent US12662489B2 (Sitryx Therapeutics Limited, priority 2023, dated 2026).

How the values were obtained:
[1] = biological target: T1, MTHFD1 recombinant human enzyme (Homo sapiens, UniProt P11586); assay: MTHFD1 inhibition assay (NAD(P)H-Glo luminescence); conditions: MTHFD1 IC50, recombinant human enzyme 200 nM, NADP, band
T1 sequence (P11586 2-291 limits assumed): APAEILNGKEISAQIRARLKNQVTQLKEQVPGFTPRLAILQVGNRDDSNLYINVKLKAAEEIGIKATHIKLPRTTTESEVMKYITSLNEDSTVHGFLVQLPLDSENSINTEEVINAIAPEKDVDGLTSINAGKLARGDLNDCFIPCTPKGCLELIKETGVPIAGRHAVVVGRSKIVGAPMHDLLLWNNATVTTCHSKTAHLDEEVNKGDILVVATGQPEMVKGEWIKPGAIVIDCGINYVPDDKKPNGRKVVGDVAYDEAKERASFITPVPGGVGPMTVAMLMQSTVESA

[2] = biological target: T2, MTHFD2 recombinant human enzyme (Homo sapiens, UniProt P13995); assay: MTHFD2 inhibition assay (NAD(P)H-Glo luminescence); conditions: for MTHFD1/MTHFD2 IC50 ratio: selectivity of MTHFD2 inhibition over MTHFD1, band
T2 sequence (P13995 36-350): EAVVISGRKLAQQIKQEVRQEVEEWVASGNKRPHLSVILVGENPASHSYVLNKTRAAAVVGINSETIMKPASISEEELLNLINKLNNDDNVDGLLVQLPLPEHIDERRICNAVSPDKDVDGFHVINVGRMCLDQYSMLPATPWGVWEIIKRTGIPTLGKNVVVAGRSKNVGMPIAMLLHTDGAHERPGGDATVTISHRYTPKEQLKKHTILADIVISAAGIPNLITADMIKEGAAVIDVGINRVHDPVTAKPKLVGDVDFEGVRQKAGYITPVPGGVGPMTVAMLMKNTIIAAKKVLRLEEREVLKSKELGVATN

Row | Structure (SMILES) | IC50 [1] [µM] | IC50 [2] [µM] | MTHFD1/MTHFD2 IC50 ratio [2]
1 | COC[C@H]1CN(c2ccc3c4c(c(=O)oc3c2Cl)CN(C(=O)c2ccc(C(=O)NS(=O)(=O)N3CCCC3)c(OC3CCC3)c2F)CC4)CCN1C [Example 53, (R)-4-(7-chloro-8-(3-(methoxymethyl)-4-methylpiperazin-1-yl)-5-oxo-1,3,4,5-tetrahydro-2H-chromeno[3,4-c]pyridine-3-carbonyl)-2-cyclobutoxy-3-fluoro-N-(pyrrolidin-1-ylsulfonyl)benzamide] | 0.001 to 0.01 | 0.01 to 0.1 | F (<3)
2 | CCOc1cc(C(=O)N2CCc3c(c(=O)oc4c(C)c(N5CCN(C)[C@@H](COC)C5)cc(C)c34)C2)c(F)cc1C(=O)NS(=O)(=O)N(C)C1CC1 [Example 269, (R)-N-(N-cyclopropyl-N-methylsulfamoyl)-2-ethoxy-5-fluoro-4-(8-(3-(methoxymethyl)-4-methylpiperazin-1-yl)-7,10-dimethyl-5-oxo-1,3,4,5-tetrahydro-2H-chromeno[3,4-c]pyridine-3-carbonyl)benzamide] | 0.01 to 0.1 | 0.001 to 0.01 | J (>30)
3 | COC[C@H]1CN(c2cc(C)c3c4c(c(=O)oc3c2C)CN(C(=O)c2ccc(C(=O)NS(=O)(=O)N3CCCC3)c(N3CCC(F)(F)C3)c2)CC4)CCN1C [Example 92, (R)-2-(3,3-difluoropyrrolidin-1-yl)-4-(8-(3-(methoxymethyl)-4-methylpiperazin-1-yl)-7,10-dimethyl-5-oxo-1,3,4,5-tetrahydro-2H-chromeno[3,4-c]pyridine-3-carbonyl)-N-(pyrrolidin-1-ylsulfonyl)benzamide] | 0.01 to 0.1 | 0.001 to 0.01 | H (>9.0 to 30)
4 | COC[C@H]1CN(c2cc(C)c3c4c(c(=O)oc3c2)CN(C(=O)c2ccc(C(=O)NS(=O)(=O)N3CCCC3)c(OC3CCCC3)c2F)CC4)CCN1C [Example 187, (R)-2-(cyclopentyloxy)-3-fluoro-4-(8-(3-(methoxymethyl)-4-methylpiperazin-1-yl)-10-methyl-5-oxo-1,3,4,5-tetrahydro-2H-chromeno[3,4-c]pyridine-3-carbonyl)-N-(pyrrolidin-1-ylsulfonyl)benzamide] | > 5 | 0.1 to 1 | H (>9.0 to 30)
5 | COC[C@H]1CN(c2cc(C)c3c4c(c(=O)oc3c2C)CN(C(=O)c2ccc(C(=O)NS(=O)(=O)N(C)C)c(OC(C)C)c2F)CC4)CCN1C [Example 148, (R)-N-(N,N-dimethylsulfamoyl)-3-fluoro-2-isopropoxy-4-(8-(3-(methoxymethyl)-4-methylpiperazin-1-yl)-7,10-dimethyl-5-oxo-1,3,4,5-tetrahydro-2H-chromeno[3,4-c]pyridine-3-carbonyl)benzamide] | 0.01 to 0.1 | 0.001 to 0.01 | G (^ 3 to 9.0)
6 | COC[C@H]1CN(c2cc(C)c3c4c(c(=O)oc3c2C)CN(C(=O)c2ccc(C(=O)NS(=O)(=O)C3(C)CC3)c(N3CCC(C)(C)C3)c2)CC4)CCN1C [Example 87, (R)-2-(3,3-dimethylpyrrolidin-1-yl)-4-(8-(3-(methoxymethyl)-4-methylpiperazin-1-yl)-7,10-dimethyl-5-oxo-1,3,4,5-tetrahydro-2H-chromeno[3,4-c]pyridine-3-carbonyl)-N-((1-methylcyclopropyl)sulfonyl)benzamide] | 0.01 to 0.1 | 0.001 to 0.01 | G (^ 3 to 9.0)
7 | COC[C@H]1CN(c2ccc3c4c(c(=O)oc3c2C)CN(C(=O)c2cc(N3CC5CC5C3)c(C(=O)NS(=O)(=O)N3CCCC3)c(C(F)(F)F)c2)CC4)CCN1C (stereo partly drawn) [Example 112, 2-(3-azabicyclo[3.1.0]hexan-3-yl)-4-(8-((R)-3-(methoxymethyl)-4-methylpiperazin-1-yl)-7-methyl-5-oxo-1,3,4,5-tetrahydro-2H-chromeno[3,4-c]pyridine-3-carbonyl)-N-(pyrrolidin-1-ylsulfonyl)-6-(trifluoromethyl)benzamide] | > 5 | 0.1 to 1 | G (^ 3 to 9.0)
8 | COC[C@H]1CN(c2cc(C)c3c4c(c(=O)oc3c2C)CN(C(=O)c2ccc(C(=O)NS(=O)(=O)N(C)C)c(N3C5CCC3CC5)c2F)CC4)CCN1C [Example 74, (R)-2-(7-azabicyclo[2.2.1]heptan-7-yl)-N-(N,N-dimethylsulfamoyl)-3-fluoro-4-(8-(3-(methoxymethyl)-4-methylpiperazin-1-yl)-7,10-dimethyl-5-oxo-1,3,4,5-tetrahydro-2H-chromeno[3,4-c]pyridine-3-carbonyl)benzamide] | 0.001 to 0.01 | 0.001 to 0.01 | F (<3)
9 | COC[C@H]1CN(c2cc(Cl)c3c4c(c(=O)oc3c2C)CN(C(=O)c2cc(N(C)C)c(C(=O)NS(=O)(=O)N3CCC[C@@H]3C(F)(F)F)cc2F)CC4)CCN1C [Example 278, 4-(10-chloro-8-((R)-3-(methoxymethyl)-4-methylpiperazin-1-yl)-7-methyl-5-oxo-1,3,4,5-tetrahydro-2H-chromeno[3,4-c]pyridine-3-carbonyl)-2-(dimethylamino)-5-fluoro-N-(((R)-2-(trifluoromethyl)pyrrolidin-1-yl)sulfonyl)benzamide] | 0.1 to 1 | 0.01 to 0.1 | H (>9.0 to 30)
10 | COC[C@H]1CN(c2ccc3c4c(c(=O)oc3c2Cl)CN(C(=O)c2ccc(C(=O)NS(=O)(=O)N3CCCC3)c(O[C@@H]3C[C@@H]5C[C@@H]5C3)c2F)CC4)CCN1C [Example 62, 2-(((1R,3r,5S)-bicyclo[3.1.0]hexan-3-yl)oxy)-4-(7-chloro-8-((R)-3-(methoxymethyl)-4-methylpiperazin-1-yl)-5-oxo-1,3,4,5-tetrahydro-2H-chromeno[3,4-c]pyridine-3-carbonyl)-3-fluoro-N-(pyrrolidin-1-ylsulfonyl)benzamide] | 0.001 to 0.01 | 0.01 to 0.1 | F (<3)
11 | CCOC[C@H]1CN(c2ccc3c4c(c(=O)oc3c2C)CN(C(=O)c2ccc(C(=O)NS(=O)(=O)N3CCCC3)c(OC3CCC3)c2F)CC4)CCN1C [Example 143, (R)-2-cyclobutoxy-4-(8-(3-(ethoxymethyl)-4-methylpiperazin-1-yl)-7-methyl-5-oxo-1,3,4,5-tetrahydro-2H-chromeno[3,4-c]pyridine-3-carbonyl)-3-fluoro-N-(pyrrolidin-1-ylsulfonyl)benzamide] | 0.1 to 1 | 0.01 to 0.1 | G (^ 3 to 9.0)
12 | COC[C@H]1CN(c2cc(C)c3c4c(c(=O)oc3c2C)CN(C(=O)c2ccc(C(=O)NS(=O)(=O)N3CCCC3)c(N(C)C)c2F)CC4)CCN1C [Example 138, (R)-2-(dimethylamino)-3-fluoro-4-(8-(3-(methoxymethyl)-4-methylpiperazin-1-yl)-7,10-dimethyl-5-oxo-1,3,4,5-tetrahydro-2H-chromeno[3,4-c]pyridine-3-carbonyl)-N-(pyrrolidin-1-ylsulfonyl)benzamide] | 0.1 to 1 | 0.01 to 0.1 | H (>9.0 to 30)
13 | COC[C@H]1CN(c2cc(C)c3c4c(c(=O)oc3c2C)CN(C(=O)c2ccc(C(=O)NS(=O)(=O)C3(C)CC3)c(N3CCC[C@@H]3C)c2)CC4)CCN1C [Example 125, 4-(8-((R)-3-(methoxymethyl)-4-methylpiperazin-1-yl)-7,10-dimethyl-5-oxo-1,3,4,5-tetrahydro-2H-chromeno[3,4-c]pyridine-3-carbonyl)-N-((1-methylcyclopropyl)sulfonyl)-2-((S)-2-methylpyrrolidin-1-yl)benzamide] | 0.001 to 0.01 | 0.01 to 0.1 | F (<3)
14 | COC[C@H]1CN(c2cc(C)c3c4c(c(=O)oc3c2C)CN(C(=O)c2ccc(C(=O)NS(=O)(=O)N3C5CCC3CC5)cc2Cl)CC4)CCN1C [Example 185, (R)-N-((7-azabicyclo[2.2.1]heptan-7-yl)sulfonyl)-3-chloro-4-(8-(3-(methoxymethyl)-4-methylpiperazin-1-yl)-7,10-dimethyl-5-oxo-1,3,4,5-tetrahydro-2H-chromeno[3,4-c]pyridine-3-carbonyl)benzamide] | > 5 | 0.1 to 1 | H (>9.0 to 30)
15 | COC[C@H]1CN(c2ccc3c4c(c(=O)oc3c2C)CN(C(=O)c2cc(Cl)c(C(=O)NS(=O)(=O)N3CCCC3)c(N3CC5CC5C3)c2)CC4)CCN1C (stereo partly drawn) [Example 105, 2-(3-azabicyclo[3.1.0]hexan-3-yl)-6-chloro-4-(8-((R)-3-(methoxymethyl)-4-methylpiperazin-1-yl)-7-methyl-5-oxo-1,3,4,5-tetrahydro-2H-chromeno[3,4-c]pyridine-3-carbonyl)-N-(pyrrolidin-1-ylsulfonyl)benzamide] | 0.1 to 1 | 0.1 to 1 | G (^ 3 to 9.0)
16 | COC[C@H]1CN(c2ccc3c4c(c(=O)oc3c2C)CN(C(=O)c2cc(Cl)c(C(=O)NS(=O)(=O)C3(C)CC3)c(N3CC5CC5C3)c2)CC4)CCN1C (stereo partly drawn) [Example 32, 2-(3-azabicyclo[3.1.0]hexan-3-yl)-6-chloro-4-(8-((R)-3-(methoxymethyl)-4-methylpiperazin-1-yl)-7-methyl-5-oxo-1,3,4,5-tetrahydro-2H-chromeno[3,4-c]pyridine-3-carbonyl)-N-((1-methylcyclopropyl)sulfonyl)benzamide] | 0.1 to 1 | 0.01 to 0.1 | J (>30)
